Measurements published in ChEMBL document CHEMBL1148604 (J Med Chem, 2006).
In brackets after ≈: the same amount, converted by molar mass.

What was measured:
Escherichia coli = assay: Inhibitory activity against Escherichia coli ANSI; type: functional
[1] = test system: Mycobacterium tuberculosis; assay: Inhibitory activity against Mycobacterium tuberculosis H37Rv; type: functional
[2] = target: T1, 3-oxoacyl-[acyl-carrier-protein] synthase 1 (Escherichia coli K-12, UniProt P0A953); assay: Inhibitory activity against FabB from Escherichia coli ANSI
T1 sequence (P0A953 whole entry): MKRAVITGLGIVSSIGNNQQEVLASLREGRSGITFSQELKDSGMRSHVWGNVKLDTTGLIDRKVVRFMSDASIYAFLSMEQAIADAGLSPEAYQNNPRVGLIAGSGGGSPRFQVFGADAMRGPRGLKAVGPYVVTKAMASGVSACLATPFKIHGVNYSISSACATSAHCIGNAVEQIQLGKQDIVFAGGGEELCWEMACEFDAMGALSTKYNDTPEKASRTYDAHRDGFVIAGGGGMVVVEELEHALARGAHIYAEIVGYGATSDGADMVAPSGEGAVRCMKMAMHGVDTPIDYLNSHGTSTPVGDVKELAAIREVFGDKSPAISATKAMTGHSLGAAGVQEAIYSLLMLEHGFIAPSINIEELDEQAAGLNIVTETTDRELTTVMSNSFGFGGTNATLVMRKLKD

[3] = target: T2, 3-oxoacyl-[acyl-carrier-protein] synthase 3 (Escherichia coli, UniProt C3TDZ2); assay: Inhibitory activity against FabH from Escherichia coli ANSI
T2 sequence (C3TDZ2 whole entry): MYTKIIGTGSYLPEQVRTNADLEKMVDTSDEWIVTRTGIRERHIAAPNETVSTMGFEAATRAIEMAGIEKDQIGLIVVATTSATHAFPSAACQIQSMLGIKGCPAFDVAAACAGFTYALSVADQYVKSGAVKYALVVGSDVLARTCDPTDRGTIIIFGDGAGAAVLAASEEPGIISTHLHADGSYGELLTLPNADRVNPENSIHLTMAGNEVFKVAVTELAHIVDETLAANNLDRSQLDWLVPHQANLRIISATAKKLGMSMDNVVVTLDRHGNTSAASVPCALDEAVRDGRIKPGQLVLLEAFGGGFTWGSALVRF

[4] = target: T3, Mycobacterial beta-ketoacyl-[acyl-carrier-protein] synthase III (Mycobacterium tuberculosis, UniProt P9WNG3); assay: Inhibitory activity against FabH from Mycobacterium tuberculosis H37Rv
T3 sequence (P9WNG3 whole entry): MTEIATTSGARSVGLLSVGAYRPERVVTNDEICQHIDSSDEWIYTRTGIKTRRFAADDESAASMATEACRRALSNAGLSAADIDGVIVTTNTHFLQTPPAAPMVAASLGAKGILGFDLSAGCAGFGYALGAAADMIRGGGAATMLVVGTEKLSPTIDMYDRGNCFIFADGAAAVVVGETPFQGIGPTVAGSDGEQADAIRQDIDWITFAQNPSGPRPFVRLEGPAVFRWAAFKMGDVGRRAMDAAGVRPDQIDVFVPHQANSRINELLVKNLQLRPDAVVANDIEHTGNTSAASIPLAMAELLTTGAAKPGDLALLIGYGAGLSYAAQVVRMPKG

[5] = target: T4, 3-oxoacyl-[acyl-carrier-protein] synthase 2 (Mycobacterium tuberculosis, UniProt P9WQD7); assay: Inhibitory activity against KasB from Mycobacterium tuberculosis H37Rv
T4 sequence (P9WQD7 whole entry): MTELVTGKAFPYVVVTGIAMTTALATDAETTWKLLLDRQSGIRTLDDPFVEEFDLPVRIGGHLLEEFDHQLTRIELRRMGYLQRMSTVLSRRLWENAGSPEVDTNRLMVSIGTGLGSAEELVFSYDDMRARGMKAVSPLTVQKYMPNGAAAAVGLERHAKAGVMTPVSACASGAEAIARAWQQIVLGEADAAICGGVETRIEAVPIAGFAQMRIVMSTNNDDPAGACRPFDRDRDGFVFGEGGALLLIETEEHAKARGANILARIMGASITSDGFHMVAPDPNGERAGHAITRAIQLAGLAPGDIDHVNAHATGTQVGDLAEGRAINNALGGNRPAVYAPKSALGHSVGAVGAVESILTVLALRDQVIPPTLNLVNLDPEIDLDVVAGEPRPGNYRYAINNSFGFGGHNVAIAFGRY

wild-type apo-KasA = wild-type apo-KasA (Mycobacterium tuberculosis, UniProt P9WQD9); assay: Inhibitory activity against KasA from Mycobacterium tuberculosis H37Rv
wild-type apo-KasA, sequence (P9WQD9 whole entry, looked up): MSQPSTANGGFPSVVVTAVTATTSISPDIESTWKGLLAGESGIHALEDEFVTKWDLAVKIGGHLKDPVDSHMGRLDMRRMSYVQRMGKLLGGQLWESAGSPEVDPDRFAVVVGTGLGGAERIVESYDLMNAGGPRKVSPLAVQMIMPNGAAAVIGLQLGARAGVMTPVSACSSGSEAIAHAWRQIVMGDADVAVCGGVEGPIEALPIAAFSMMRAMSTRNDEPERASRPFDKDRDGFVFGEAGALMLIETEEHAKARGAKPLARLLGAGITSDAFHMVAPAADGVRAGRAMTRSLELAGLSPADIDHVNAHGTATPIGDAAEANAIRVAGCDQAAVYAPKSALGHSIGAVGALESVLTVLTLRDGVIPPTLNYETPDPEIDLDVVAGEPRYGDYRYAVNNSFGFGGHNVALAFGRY

SMILES | MIC (Escherichia coli) [µM] | MIC [1] [µM] | IC50 [2] [µM] | IC50 [3] [µM] | IC50 [4] [µM] | IC50 [5] [µM] | IC50 (wild-type apo-KasA) [µM]
CCCCCC(C)C1(C)SC(O)=C(C)C1=O (configuration not stated) | 160 (≈ 38.8 µg/mL) | 1000 (≈ 242 µg/mL) | > 1000 | > 1000 | > 1000 | > 1000 | > 1000
CC1=C(O)SC(C)(C(C)c2ccccc2)C1=O (configuration not stated) | > 1000 | > 1000 | > 1000 | > 1000 | > 1000 | > 1000 | > 1000
CCCCCCCCC(C)C1(C)SC(O)=C(C)C1=O (configuration not stated) | 35 (≈ 9.96 µg/mL) | 1000 (≈ 284 µg/mL) | > 1000 | > 1000 | 75 | > 1000 | > 1000
CC1=C(O)C(C)(CCCc2ccccc2)SC1=O (configuration not stated) | > 1000 | 1000 (≈ 262 µg/mL) | > 1000 | > 1000 | > 1000 | > 1000 | > 1000
CC1=C(O)C(C)(Cc2cccc(C(F)(F)F)c2)SC1=O (configuration not stated) | > 1000 | 1000 (≈ 302 µg/mL) | > 1000 | > 1000 | > 1000 | > 1000 | > 1000
CCCCCCCCCCC(C)C1(C)SC(O)=C(C)C1=O (configuration not stated) | 35 (≈ 10.9 µg/mL) | 500 (≈ 156 µg/mL) | > 1000 | 100 | 65 | > 1000 | > 1000
CCCCCCCCCCCCCCCCCCCCC1(C)SC(O)=C(C)C1=O (configuration not stated) | – | > 1000 | – | – | – | – | –
CC1=C(O)SC(C)(CCC(C)C)C1=O (configuration not stated) | > 1000 | > 1000 | > 1000 | > 1000 | > 1000 | > 1000 | > 1000
CC1=C(O)C(C)(Cc2cc(C)ccc2C)SC1=O (configuration not stated) | > 1000 | > 1000 | > 1000 | > 1000 | > 1000 | > 1000 | > 1000
COc1ccccc1CC1(C)SC(O)=C(C)C1=O (configuration not stated) | > 1000 | > 1000 | > 1000 | > 1000 | > 100 | > 1000 | > 1000
COc1cc(CC2(C)SC(O)=C(C)C2=O)cc(OC)c1 (configuration not stated) | > 1000 | > 1000 | > 1000 | > 1000 | > 1000 | > 1000 | > 1000
CC1=C(O)C(C)(Cc2ccccc2C)SC1=O (configuration not stated) | > 1000 | 1000 (≈ 248 µg/mL) | > 1000 | > 1000 | > 1000 | > 1000 | > 1000
CC1=C(O)C(C)(Cc2ccccc2Cl)SC1=O (configuration not stated) | > 1000 | 1000 (≈ 269 µg/mL) | > 1000 | > 1000 | > 1000 | > 1000 | > 1000
CCCCCCCCCC1(C)SC(O)=C(C)C1=O (configuration not stated) | 100 (≈ 27 µg/mL) | 500 (≈ 135 µg/mL) | > 1000 | > 100 | > 100 | > 1000 | > 1000
CC1=C(O)C(C)(CC2CCC2)SC1=O (configuration not stated) | > 1000 | 1000 (≈ 212 µg/mL) | > 1000 | > 1000 | > 1000 | > 1000 | > 1000
CC1=C(O)C(C)(Cc2c(Cl)cccc2Cl)SC1=O (configuration not stated) | > 1000 | 500 (≈ 152 µg/mL) | > 1000 | > 1000 | > 1000 | > 1000 | > 1000
CCCCCCCCCCCC1(C)SC(O)=C(C)C1=O (configuration not stated) | 25 (≈ 7.46 µg/mL) | 500 (≈ 149 µg/mL) | > 1000 | > 100 | 100 | > 1000 | > 1000
CC1=C(O)C(C)(CCc2ccccc2)SC1=O (configuration not stated) | > 1000 | 1000 (≈ 248 µg/mL) | > 1000 | > 1000 | > 1000 | > 1000 | > 1000
COc1cccc(CC2(C)SC(O)=C(C)C2=O)c1 (configuration not stated) | > 1000 | > 1000 | > 1000 | > 1000 | > 1000 | > 1000 | > 1000

SMILES | MIC (Escherichia coli) [µM] | MIC [1] [µM] | IC50 [2] [µM] | IC50 [3] [µM] | IC50 [4] [µM] | IC50 [5] [µM] | IC50 (wild-type apo-KasA) [µM]
CCCCCCCCCCCCCCCC1(C)SC(O)=C(C)C1=O (configuration not stated) | – | 500 (≈ 177 µg/mL) | – | – | – | – | –
CCCCCCCCCCCCCCCCCCC1(C)SC(O)=C(C)C1=O (configuration not stated) | – | > 1000 | – | – | – | – | –
CC1=C(O)C(C)(Cc2c(C)cc(C)cc2C)SC1=O (configuration not stated) | > 1000 | 1000 (≈ 276 µg/mL) | > 1000 | > 1000 | > 1000 | > 1000 | > 1000
CC1=C(O)C(C)(Cc2cccc(C)c2)SC1=O (configuration not stated) | > 1000 | 1000 (≈ 248 µg/mL) | > 1000 | > 1000 | > 1000 | > 1000 | > 1000
CC1=C(O)C(C)(Cc2ccc(F)cc2)SC1=O (configuration not stated) | > 1000 | > 1000 | > 1000 | > 1000 | > 100 | > 1000 | > 1000
CCCCCCCCCCCCCCCCC1(C)SC(O)=C(C)C1=O (configuration not stated) | – | > 1000 | – | – | – | – | –
CC1=C(O)C(C)(Cc2ccc(C(C)(C)C)cc2)SC1=O (configuration not stated) | > 1000 | 1000 (≈ 290 µg/mL) | > 1000 | > 1000 | > 100 | > 1000 | > 1000
CC1=C(O)C(C)(Cc2ccc(Cl)cc2)SC1=O (configuration not stated) | > 1000 | 1000 (≈ 269 µg/mL) | > 1000 | > 1000 | > 100 | > 1000 | > 1000
CC1=C(O)C(C)(Cc2ccc(C)cc2)SC1=O (configuration not stated) | > 1000 | > 1000 | > 1000 | > 1000 | > 1000 | > 1000 | > 1000
C=C/C(C)=C/[C@@]1(C)SC(=O)C(C)=C1O [THIOLACTOMYCIN] | 6 (≈ 1.26 µg/mL) | 62.5 (≈ 13.1 µg/mL) | 12 | – | – | 6 | –
C=CCCCCCCC1(C)SC(=O)C(C)=C1O (configuration not stated) | 200 (≈ 50.9 µg/mL) | 500 (≈ 127 µg/mL) | > 1000 | > 1000 | > 1000 | > 1000 | > 1000
CC1=C(O)C(C)(Cc2ccc([N+](=O)[O-])cc2)SC1=O (configuration not stated) | > 1000 | > 1000 | > 1000 | > 1000 | > 1000 | > 1000 | > 1000
COc1ccc(CC2(C)SC(O)=C(C)C2=O)cc1 (configuration not stated) | > 1000 | > 1000 | > 1000 | > 1000 | > 1000 | > 1000 | > 1000
CC/C=C/CC1(C)SC(O)=C(C)C1=O (configuration not stated) | > 1000 | > 1000 | > 1000 | > 1000 | > 1000 | > 1000 | > 1000
CCCCCCCC1(C)SC(O)=C(C)C1=O (configuration not stated) | 200 (≈ 48.5 µg/mL) | 1000 (≈ 242 µg/mL) | > 1000 | > 1000 | > 1000 | > 1000 | > 1000
C=CCCC1(C)SC(=O)C(C)=C1O (configuration not stated) | > 1000 | > 1000 | > 1000 | > 1000 | > 1000 | > 1000 | > 1000
CC1=C(O)C(C)(Cc2ccc3ccccc3c2)SC1=O (configuration not stated) | > 1000 | 500 (≈ 142 µg/mL) | > 1000 | > 1000 | > 100 | > 1000 | > 1000
CC1=C(O)C(C)(CC2CCCCC2)SC1=O (configuration not stated) | > 1000 | > 1000 | > 1000 | > 1000 | > 1000 | > 1000 | > 1000
